Consider six compounds from PubChem BioAssay AID1745844 (Carcinogenic Potency Database (CPDB), 2022).

The series concerns rodent lifetime carcinogenesis bioassay, tumor incidence TD50. Nature of the series: chronic cancer bioassays in animals – CPDB, compiled studies (AID 1745844).

Each structure is given as a SMILES string. “And” between values parts separate entries of the source, which are not always exact repeats. Identical values can stand only once. The source made the active and inactive calls. How the calls were made is not given here.

As usually defined, the TD50 is the 50% point of the dose-response relation for the toxic effect studied. Consider `Nc1ccc(N=Nc2ccccc2)c(N)n1`, for which the TD50 is, setting by setting: (mouse, strain B6C3F1, females, in feed, site: any site (literature study), lesion: several types, types named in the paper, dosed 80 weeks, study length 105 weeks) 89.7 mg/kg/day; (mouse, strain B6C3F1, females, in feed, site: liver, lesion: hepatocellular adenoma + hepatocellular carcinoma + neoplastic nodule, dosed 80 weeks, study length 105 weeks) 71.1 mg/kg/day; (mouse, strain B6C3F1, females, in feed, site: liver, lesion: hepatocellular adenoma + hepatocellular carcinoma, dosed 80 weeks, study length 105 weeks) 71.1 mg/kg/day; (mouse, strain B6C3F1, females, in feed, site: liver, lesion: hepatocellular carcinoma, dosed 80 weeks, study length 105 weeks) 132 mg/kg/day; (mouse, strain B6C3F1, females, in feed, site: lung, lesion: alveolar/bronchiolar adenoma + alveolar/bronchiolar carcinoma, dosed 80 weeks, study length 105 weeks) 4650 mg/kg/day; (mouse, strain B6C3F1, males, in feed, site: any site (literature study), lesion: several types, types named in the paper, dosed 80 weeks, study length 105 weeks) 496 mg/kg/day (inactive). Further, the TD50 reads like this: (mouse, strain B6C3F1, males, in feed, site: liver, lesion: hepatocellular adenoma + hepatocellular carcinoma + neoplastic nodule, dosed 80 weeks, study length 105 weeks) 811 mg/kg/day; (mouse, strain B6C3F1, males, in feed, site: lung, lesion: alveolar/bronchiolar adenoma + alveolar/bronchiolar carcinoma, dosed 80 weeks, study length 105 weeks) 1300 mg/kg/day; (rat, strain Fischer 344, females, in feed, site: colon, lesion: adenocarcinoma, NOS, dosed 78 weeks, study length 105 weeks) 687 mg/kg/day; (rat, strain Fischer 344, males, in feed, site: colon + rectum, lesion: adenocarcinoma, NOS + adenoma, NOS, dosed 78 weeks, study length 104 weeks) 303 mg/kg/day; (rat, strain Fischer 344, males, in feed, site: colon + rectum, lesion: adenocarcinoma, NOS, dosed 78 weeks, study length 104 weeks) 333 mg/kg/day; (rat, strain Fischer 344, males, in feed, site: liver, lesion: hepatocellular adenoma + hepatocellular carcinoma + neoplastic nodule, dosed 78 weeks, study length 104 weeks) 2170 mg/kg/day.
On to `CCC1CO1` (centres undefined), for which the TD50 (mouse, strain B6C3F1, females, inhaled, site: any site (literature study), lesion: several types, types named in the paper, dosed 102 weeks, study length 104 weeks) is 141 mg/kg/day (inactive); the TD50 (mouse, strain B6C3F1, females, inhaled, site: liver, lesion: hepatocellular adenoma + hepatocellular carcinoma + neoplastic nodule, dosed 102 weeks, study length 104 weeks) stood at 445 mg/kg/day; the TD50 (mouse, strain B6C3F1, females, inhaled, site: lung, lesion: alveolar/bronchiolar adenoma + alveolar/bronchiolar carcinoma, dosed 102 weeks, study length 104 weeks) amounted to 834 mg/kg/day; the TD50 (mouse, strain B6C3F1, males, inhaled, site: any site (literature study), lesion: several types, types named in the paper, dosed 102 weeks, study length 104 weeks) is 2470 mg/kg/day (inactive); the TD50 (mouse, strain B6C3F1, males, inhaled, site: liver, lesion: hepatocellular adenoma + hepatocellular carcinoma + neoplastic nodule, dosed 102 weeks, study length 104 weeks) stood at 8600 mg/kg/day; the TD50 (rat, strain Fischer 344, females, inhaled, site: any site (literature study), lesion: several types, types named in the paper, dosed 103 weeks, study length 105 weeks) came out at 78 mg/kg/day. The TD50 reads like this: (rat, strain Fischer 344, females, inhaled, site: nasal cavity, lesion: papillary adenoma, dosed 103 weeks, study length 105 weeks) 1730 mg/kg/day; (rat, strain Fischer 344, females, inhaled, site: ovary, lesion: granulosa-cell carcinoma + granulosa-cell tumor + thecoma, dosed 103 weeks, study length 105 weeks) 545 mg/kg/day; (rat, strain Fischer 344, females, inhaled, site: pituitary gland, anterior, lesion: adenoma, NOS, dosed 103 weeks, study length 105 weeks) 83.8 mg/kg/day; (rat, strain Fischer 344, females, inhaled, site: thyroid gland, lesion: follicular-cell adenoma + follicular-cell carcinoma, dosed 103 weeks, study length 105 weeks) 509 mg/kg/day; (rat, strain Fischer 344, males, inhaled, site: any site (literature study), lesion: several types, types named in the paper, dosed 103 weeks, study length 105 weeks) 79.6 mg/kg/day; (rat, strain Fischer 344, males, inhaled, site: liver, lesion: hepatocellular adenoma + hepatocellular carcinoma + neoplastic nodule, dosed 103 weeks, study length 105 weeks) 622 mg/kg/day. In addition, the TD50 by setting is: (rat, strain Fischer 344, males, inhaled, site: lung + nasal cavity, lesion: alveolar/bronchiolar adenoma + alveolar/bronchiolar carcinoma + papillary adenoma, dosed 103 weeks, study length 105 weeks) 106 mg/kg/day; (rat, strain Fischer 344, males, inhaled, site: lung, lesion: alveolar/bronchiolar adenoma + alveolar/bronchiolar carcinoma, dosed 103 weeks, study length 105 weeks) 220 mg/kg/day; (rat, strain Fischer 344, males, inhaled, site: lung, lesion: alveolar/bronchiolar carcinoma, dosed 103 weeks, study length 105 weeks) 314 mg/kg/day; (rat, strain Fischer 344, males, inhaled, site: multiple organs + spleen, lesion: mononuclear-cell leukemia, dosed 103 weeks, study length 105 weeks) 30.7 mg/kg/day; (rat, strain Fischer 344, males, inhaled, site: nasal cavity, lesion: papillary adenoma, dosed 103 weeks, study length 105 weeks) 220 mg/kg/day.
Take `Nc1ccc(O)c(N)c1`: the carcinogen call (mouse, strain B6C3F1, females, by gavage, site: any site (literature study), lesion: several types, types named in the paper, dosed 103 weeks, study length 104 weeks) is “negative (inactive)”. Besides, the TD50 is 2890 mg/kg/day (mouse, strain B6C3F1, females, by gavage, site: liver, lesion: hepatocellular adenoma + hepatocellular carcinoma + neoplastic nodule, dosed 103 weeks, study length 104 weeks); 239 mg/kg/day (mouse, strain B6C3F1, females, by gavage, site: lung, lesion: alveolar/bronchiolar adenoma + alveolar/bronchiolar carcinoma, dosed 103 weeks, study length 104 weeks); 320 mg/kg/day and 143 mg/kg/day (mouse, strain B6C3F1, males, by gavage, site: kidney, lesion: tubule adenoma, dosed 103 weeks, study length 104 weeks); 164 mg/kg/day (mouse, strain B6C3F1, males, by gavage, site: liver, lesion: hepatocellular adenoma + hepatocellular carcinoma + neoplastic nodule, dosed 103 weeks, study length 104 weeks); 194 mg/kg/day (mouse, strain B6C3F1, males, by gavage, site: lung, lesion: alveolar/bronchiolar adenoma + alveolar/bronchiolar carcinoma, dosed 103 weeks, study length 104 weeks); 46.3 mg/kg/day (inactive) (rat, strain Fischer 344, females, by gavage, site: any site (literature study), lesion: several types, types named in the paper, dosed 103 weeks, study length 104 weeks). Besides, the TD50 (rat, strain Fischer 344, males, by gavage, site: any site (literature study), lesion: several types, types named in the paper, dosed 103 weeks, study length 104 weeks) was 543 mg/kg/day (inactive).
Consider `COC(=O)[C@H]1[C@H]2C[C@@H]3c4[nH]c5cc(OC)ccc5c4CCN3C[C@H]2C[C@@H](OC(=O)c2cc(OC)c(OC)c(OC)c2)[C@@H]1OC`, for which the TD50 is, setting by setting: (mouse, strain B6C3F1, females, in feed, site: any site (literature study), lesion: several types, types named in the paper, dosed 103 weeks, study length 104 weeks) 6.42 mg/kg/day; (mouse, strain B6C3F1, females, in feed, site: lung, lesion: alveolar/bronchiolar adenoma + alveolar/bronchiolar carcinoma, dosed 103 weeks, study length 104 weeks) 54.5 mg/kg/day; (mouse, strain B6C3F1, females, in feed, site: mammary gland, lesion: all tumors, dosed 103 weeks, study length 104 weeks) 3.58 mg/kg/day; (mouse, strain B6C3F1, males, in feed, site: liver, lesion: hepatocellular adenoma + hepatocellular carcinoma + neoplastic nodule, dosed 103 weeks, study length 104 weeks) 5.46 mg/kg/day; (mouse, strain B6C3F1, males, in feed, site: seminal vesicle, lesion: undifferentiated carcinoma, dosed 103 weeks, study length 104 weeks) 8.39 mg/kg/day; (mouse, strain C3H (MTV+), females, in feed, site: mammary gland, lesion: adenocarcinoma, dosed 104 weeks, study length 104 weeks) 0.0342 mg/kg/day. For the same compound, the TD50 (rat, strain Fischer 344, females, in feed, site: any site (literature study), lesion: several types, types named in the paper, dosed 103 weeks, study length 104 weeks) was 0.727 mg/kg/day (inactive); the TD50 (rat, strain Fischer 344, males, in feed, site: adrenal gland, lesion: pheochromocytoma + pheochromocytoma, malignant, dosed 103 weeks, study length 104 weeks) was 0.306 mg/kg/day; the TD50 (rat, strain Fischer 344, males, in feed, site: liver, lesion: hepatocellular adenoma + hepatocellular carcinoma + neoplastic nodule, dosed 103 weeks, study length 104 weeks) was 6.77 mg/kg/day; the TD50 (rat, strain Wistar, males, in feed, site: pituitary gland, lesion: adenoma, dosed 75 weeks, study length 75 weeks) is 38.3 mg/kg/day (inactive). Moreover, the carcinogen call is “negative (inactive)” (rat, strain Wistar, females, in feed, site: mammary gland, lesion: fibroadenoma, dosed 75 weeks, study length 75 weeks) and “negative (inactive)” (rat, strain Wistar, females, in feed, site: pituitary gland, lesion: several types, types named in the paper, dosed 75 weeks, study length 75 weeks).
`CN(Cc1cnc2nc(N)nc(N)c2n1)c1ccc(C(=O)N[C@@H](CCC(=O)O)C(=O)O)cc1`: the carcinogen call reads like this: (hamster, strain Syrian Golden, females, in feed, site: any site (literature study), lesion: several types, types named in the paper, dosed 101 weeks, study length 105 weeks) “negative (inactive)”; (hamster, strain Syrian Golden, males, in feed, site: any site (literature study), lesion: several types, types named in the paper, dosed 108 weeks, study length 115 weeks) “negative (inactive)”; (hamster, strain Syrian Golden, males, in feed, site: liver, lesion: one or several types, types not named, dosed 108 weeks, study length 115 weeks) “negative (inactive)”; (mouse, strain Swiss, females, in feed, site: lung, lesion: several types, types named in the paper, dosed 120 weeks, study length 120 weeks) “negative (inactive)”; (mouse, strain Swiss, males, in feed, site: any site (literature study), lesion: several types, types named in the paper, dosed 118 weeks, study length 120 weeks) “negative (inactive)”; (mouse, strain Swiss, males, in feed, site: liver, lesion: hemangioma, dosed 118 weeks, study length 120 weeks) “negative (inactive)”. In addition, the carcinogen call reads like this: (mouse, strain Swiss, males, in feed, site: lung, lesion: several types, types named in the paper, dosed 118 weeks, study length 120 weeks) “negative (inactive)”; (rat, strain Sprague-Dawley, females, i.p., site: any site (literature study), lesion: malignant tumor, dosed 104 weeks, study length 104 weeks) “negative (inactive)”; (rat, strain Sprague-Dawley, males, i.p., site: any site (literature study), lesion: malignant tumor, dosed 104 weeks, study length 104 weeks) “negative (inactive)”. Further, the TD50 reads like this: (hamster, strain Syrian Golden, females, in feed, site: liver, lesion: hepatocellular adenoma, dosed 101 weeks, study length 105 weeks) 51.1 mg/kg/day (inactive); (hamster, strain Syrian Golden, females, in feed, site: liver, lesion: several types, types named in the paper, dosed 101 weeks, study length 105 weeks) 167 mg/kg/day; (mouse, strain Swiss, females, in feed, site: any site (literature study), lesion: several types, types named in the paper, dosed 120 weeks, study length 120 weeks) 48 mg/kg/day (inactive); (mouse, strain Swiss, females, in feed, site: liver, lesion: hepatocellular carcinoma, dosed 120 weeks, study length 120 weeks) 65.2 mg/kg/day (inactive); (rat, strain BR 46, males, i.v., site: any site (literature study), lesion: benign tumor, dosed 52 weeks, study length 104 weeks) 0.409 mg/kg/day (inactive); (rat, strain BR 46, males, i.v., site: any site (literature study), lesion: malignant tumor, dosed 52 weeks, study length 104 weeks) 2.96 mg/kg/day (inactive). Besides, under “rat, strain BR 46, males, i.v., site: any site (literature study), lesion: several types, types named in the paper, dosed 52 weeks, study length 104 weeks”, the TD50 was 0.33 mg/kg/day (inactive).
Consider `CN(C)C(=O)Cl`, for which the TD50 was 0.625 mg/kg/day (hamster, strain Syrian Golden, males, inhaled, site: nasal cavity, lesion: squamous-cell carcinoma, dosed 112 weeks, study length 112 weeks); 5.37 mg/kg/day (mouse, strain Ha/ICR, females, i.p., site: abdomen, lesion: sarcoma, dosed 64 weeks, study length 64 weeks); 4.59 mg/kg/day (mouse, strain Ha/ICR, females, i.p., site: abdomen, lesion: several types, types named in the paper, dosed 64 weeks, study length 64 weeks); 6.65 mg/kg/day (mouse, strain Ha/ICR, females, i.p., site: lung, lesion: papillary tumor, dosed 64 weeks, study length 64 weeks).
